Measurements published in patent US11590116B2 (THERAVANCE BIOPHARMA R&D IP, LLC, priority 2019, dated 2023).

Legend:
[1] = target: T1, recombinant human ALK5 (TGF-βR1) protein (Homo sapiens, UniProt P36897); assay: Biochemical ALK5 (TGF-βR1) assay to measure pKi (LANCE Ultra ULight kinase assay); settings: apparent pKi from pIC50 by Cheng-Prusoff, read-out: ALK5 pKi (converted)
T1 construct: purchased Life Technologies PR9075A
T1 sequence (P36897 34-503): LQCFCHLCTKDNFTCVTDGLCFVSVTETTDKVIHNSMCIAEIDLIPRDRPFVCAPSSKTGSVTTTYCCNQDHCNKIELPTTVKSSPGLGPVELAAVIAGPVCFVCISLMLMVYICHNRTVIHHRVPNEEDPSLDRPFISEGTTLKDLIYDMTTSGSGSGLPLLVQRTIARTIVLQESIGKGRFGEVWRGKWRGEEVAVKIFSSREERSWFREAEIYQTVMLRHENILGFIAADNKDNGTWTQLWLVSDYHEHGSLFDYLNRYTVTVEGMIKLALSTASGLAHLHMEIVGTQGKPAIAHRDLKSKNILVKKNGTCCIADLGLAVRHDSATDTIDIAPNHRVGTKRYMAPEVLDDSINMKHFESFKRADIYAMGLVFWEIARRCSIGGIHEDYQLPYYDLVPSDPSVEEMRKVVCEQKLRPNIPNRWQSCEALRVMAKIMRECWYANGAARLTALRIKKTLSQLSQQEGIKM
Summary of the method: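 Dose range 10 μM–25 pM; enzyme + compound 60 min RT; ATP added (5× stock 125 μM, 2 mM DTT); 60 min 37 °C; stop with EDTA + Eu anti-phospho-Topo IIα Thr1342 Ab; TR-FRET ex 320/340, em 665 nm. 4-param pIC50 → pKi (Cheng-Prusoff).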

[2] = test system: TGF-β-stimulated SMAD3 phosphorylation in BEAS-2B cells; assay: Cellular ALK5 potency assay, inhibition of TGF-β stimulated pSMAD3 formation in BEAS-2B cells; assay type: cell-based; settings: Homo sapiens; inhibition of TGF-β stimulated pSMAD3 formation, BEAS-2B cells; read-out: BEAS2B pIC50 (converted)
Summary of the method: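 SMAD3 phosphorylation was measured by AlphaLISA after 30 min TGF-β stimulation (10 ng/mL final) of BEAS-2B cells preincubated 1 h with compound at 37 °C. Results given as pIC50.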

Compound	Ki [1] [nM]	IC50 [2] [nM]
Cc1cccc(-c2[nH]cnc2-c2ccc3ncc(NCCN4CC5(CNC5)C4)cc3c2)n1 [Compound 709, N-[2-(2,6-diazaspiro[3.3]heptan-2-yl)ethyl]-6-[5-(6-methyl-2-pyridyl)-1H-imidazol-4-yl]quinolin-3-amine]	0.0398 to 0.316	25.1 to 158
Cc1cccc(-c2[nH]cnc2-c2ccc3ncc(C4=CCC(C(=O)O[C@@H]5CCN(C)C5)CC4)cc3c2)n1 (stereo partly drawn) [Compound 710, [(3R)-1-methylpyrrolidin-3-yl] 4-[6-[5-(6-methyl-2-pyridyl)-1H-imidazol-4-yl]-3-quinolyl]cyclohex-3-ene-1-carboxylate]	0.0398 to 0.316	25.1 to 158
Cc1cccc(-c2[nH]cnc2-c2ccc3ncc(NCCN4CCC5(CCNC5)C4)cc3c2)n1 (stereo not shown) [Compound 711, N-[2-(2,7-diazaspiro[4.4]nonan-2-yl)ethyl]-6-[5-(6-methyl-2-pyridyl)-1H-imidazol-4-yl]quinolin-3-amine]	0.0398 to 0.316	200 to 1260
Cc1cccc(-c2[nH]cnc2-c2ccc3ncc(NCCN4CCNC(C(=O)O)C4)cc3c2)n1 (stereo not shown) [Compound 712, 4-[2-[[6-[5-(6-methyl-2-pyridyl)-1H-imidazol-4-yl]-3-quinolyl]amino]ethyl]piperazine-2-carboxylic acid]	0.0398 to 0.316	200 to 1260
Cc1cccc(-c2[nH]cnc2-c2ccc3ncc(C(=O)OCCCCN4CCCC4)cc3c2)n1 [Compound 714, 4-pyrrolidin-1-ylbutyl 6-[5-(6-methyl-2-pyridyl)-1H-imidazol-4-yl]quinoline-3-carboxylate]	0.0398 to 0.316	25.1 to 158
Cc1cccc(-c2[nH]cnc2-c2ccc3ncc(-c4ccc(C(=O)O[C@H]5CCNC5)cc4)cc3c2)n1 [Compound 718, [(3S)-pyrrolidin-3-yl]4-[6-[5-(6-methyl-2-pyridyl)-1H-imidazol-4-yl]-3-quinolyl]benzoate]	0.0398 to 0.316	25.1 to 158
Cc1cccc(-c2[nH]cnc2-c2ccc3ncc(-c4ccc(C(=O)O[C@H]5CCN(C)C5)nc4)cc3c2)n1 [Compound 722, [(3S)-1-methylpyrrolidin-3-yl] 5-[6-[5-(6-methyl-2-pyridyl)-1H-imidazol-4-yl]-3-quinolyl]pyridine-2-carboxylate]	0.0398 to 0.316	< 20
COC(=O)[C@H]1CNCCN1CCNc1cnc2ccc(-c3nc[nH]c3-c3cccc(C)n3)cc2c1 [Compound 723, methyl (2R)-1-[2-[[6-[5-(6-methyl-2-pyridyl)-1H-imidazol-4-yl]-3-quinolyl]amino]ethyl]piperazine-2-carboxylate]	0.0398 to 0.316	200 to 1260
Cc1cccc(-c2[nH]cnc2-c2ccc3ncc(C(=O)O[C@H]4CCN(C)C4)cc3c2)n1 [Compound 724, [(3S)-1-methylpyrrolidin-3-yl] 6-[5-(6-methyl-2-pyridyl)-1H-imidazol-4-yl]quinoline-3-carboxylate]	0.398 to 3.16	25.1 to 158
Cc1cccc(-c2[nH]cnc2-c2ccc3ncc(-c4cncc(C(=O)O[C@@H]5CCNC5)c4)cc3c2)n1 [Compound 725, [(3R)-pyrrolidin-3-yl] 5-[6-[5-(6-methyl-2-pyridyl)-1H-imidazol-4-yl]-3-quinolyl]pyridine-3-carboxylate]	0.0398 to 0.316	25.1 to 158
COC(=O)[C@@H]1CCN(CCNc2cnc3ccc(-c4nc[nH]c4-c4cccc(C)n4)cc3c2)C1 [Compound 729, methyl (3R)-1-[2-[[6-[5-(6-methyl-2-pyridyl)-1H-imidazol-4-yl]-3-quinolyl]amino]ethyl]pyrrolidine-3-carboxylate]	0.0398 to 0.316	25.1 to 158
Cc1cccc(-c2[nH]cnc2-c2ccc3ncc(NCCN4CCC[C@@H](N)C4)cc3c2)n1 [Compound 730, N-[2-[(3R)-3-amino-1-piperidyl]ethyl]-6-[5-(6-methyl-2-pyridyl)-1H-imidazol-4-yl]quinolin-3-amine]	0.0398 to 0.316	25.1 to 158
CC(=O)Oc1cnc2ccc(-c3cn[nH]c3-c3cccc(C)n3)cc2c1 [Compound 731, [6-[5-(6-methyl-2-pyridyl)-1H-pyrazol-4-yl]-3-quinolyl]acetate]	0.0398 to 0.316	< 20

Second part, led by results:

Ki [1] [nM]	Compound	IC50 [2] [nM]
0.0398 to 0.316	Cc1cccc(-c2[nH]cnc2-c2ccc3ncc(NCCN4CCN[C@@H](CO)C4)cc3c2)n1 [Compound 708, [(2R)-4-[2-[[6-[5-(6-methyl-2-pyridyl)-1H-imidazol-4-yl]-3-quinolyl]amino]ethyl]piperazin-2-yl]methanol]	200 to 1260
0.0398 to 0.316	Cc1cccc(-c2[nH]cnc2-c2ccc3ncc(NCCN4CC5(CC(N)C5)C4)cc3c2)n1 [Compound 715, N-[2-(6-amino-2-azaspiro[3.3]heptan-2-yl)ethyl]-6-[5-(6-methyl-2-pyridyl)-1H-imidazol-4-yl]quinolin-3-amine]	200 to 1260
0.0398 to 0.316	Cc1cccc(-c2[nH]cnc2-c2ccc3ncc(-c4ccc(C(=O)O[C@@H]5CCNC5)cc4)cc3c2)n1 [Compound 716, [(3R)-pyrrolidin-3-yl] 4-[6-[5-(6-methyl-2-pyridyl)-1H-imidazol-4-yl]-3-quinolyl]benzoate]	25.1 to 158
0.0398 to 0.316	COC(=O)[C@@H]1CN(CCNc2cnc3ccc(-c4nc[nH]c4-c4cccc(C)n4)cc3c2)CCN1 [Compound 717, methyl (2S)-4-[2-[[6-[5-(6-methyl-2-pyridyl)-1H-imidazol-4-yl]-3-quinolyl]amino]ethyl]piperazine-2-carboxylate]	25.1 to 158
0.0398 to 0.316	Cc1cccc(-c2[nH]cnc2-c2ccc3ncc(-c4cncc(C(=O)O[C@H]5CCNC5)c4)cc3c2)n1 [Compound 719, [(3S)-pyrrolidin-3-yl] 5-[6-[5-(6-methyl-2-pyridyl)-1H-imidazol-4-yl]-3-quinolyl]pyridine-3-carboxylate]	200 to 1260
0.0398 to 0.316	Cc1cccc(-c2[nH]cnc2-c2ccc3ncc(-c4cnc5c(c4)CCNC5)cc3c2)n1 [Compound 721, 3-[6-[5-(6-methyl-2-pyridyl)-1H-imidazol-4-yl]-3-quinolyl]-5,6,7,8-tetrahydro-1,7-naphthyridine]	25.1 to 158
< 0.0316	Cc1cccc(-c2[nH]cnc2-c2ccc3ncc(-c4ccc5c(c4)C(N)CC5)cc3c2)n1 (stereo not shown) [Compound 726, 6-[6-[5-(6-methyl-2-pyridyl)-1H-imidazol-4-yl]-3-quinolyl]indan-1-amine]	25.1 to 158
< 0.0316	Cc1cccc(-c2[nH]cnc2-c2ccc3ncc(-c4nc5c(s4)CCNC5)cc3c2)n1 [Compound 727, 2-(6-(5-(6-methylpyridin-2-yl)-1H-imidazol-4-yl)quinolin-3-yl)-4,5,6,7-tetrahydrothiazolo[4,5-c]pyridine]	< 20
0.0398 to 0.316	COC(=O)[C@@H]1CCCN(CCNc2cnc3ccc(-c4nc[nH]c4-c4cccc(C)n4)cc3c2)C1 [Compound 728, methyl (3R)-1-[2-[[6-[5-(6-methyl-2-pyridyl)-1H-imidazol-4-yl]-3-quinolyl]amino]ethyl]piperidine-3-carboxylate]	25.1 to 158
0.0398 to 0.316	COC(=O)c1cnc2ccc(-c3nc[nH]c3-c3cccc(C)n3)cc2c1 [Compound 732, methyl 6-[5-(6-methyl-2-pyridyl)-1H-imidazol-4-yl]quinoline-3-carboxylate]	< 20
